Where two headings read alike, the source gives them in different places.
Columns and labels:
[1] = target: recombinant firefly luciferase (Photinus pyralis, UniProt P08659); test: biochemical; conditions: for Emax: maximum inhibition, read-out: rLuc inhibition dose response: Maximum inhibition (%)
[2] = tested on: P. berghei liver stage (PbLuc); test: P. berghei luciferase liver stage (PbLuc) assay in HepG2-A16-CD81 hepatocytes; assay type: cell-based, Plasmodium berghei; conditions: Plasmodium berghei; for Emax: 12pt dose response, maximum inhibition
[3] = tested on: P. falciparum Dd2 (PfLuc) line expressing firefly luciferase, asexual blood stage; test: microbe, parasite or virus in culture; assay type: cell-based, Plasmodium falciparum; conditions: Plasmodium falciparum
P. falciparum Dd2 = test: SYBR green I asexual blood stage proliferation assay (96 h); assay type: cell-based, Plasmodium falciparum; conditions: Plasmodium falciparum, DD2, Sybr Green I, 11-pt dose response, 96hr; for IC50: read-out: CDD P. falciparum Sybr Green I ABS 11-pt Reconfirmation Dose Response (96hr): IC50; for Emax: read-out: CDD P. falciparum Sybr Green I ABS 11-pt Reconfirmation Dose Response (96hr): Maximum inhibition (%)
[4] = tested on: HepG2-A16-CD81 hepatocytes; test: HepG2 cytotoxicity screening (CellTiter-Glo); conditions: for IC50: HepG2-A16-CD81, read-out: HepG2 tox IC50; for HepG2 cytotoxicity 12pt dose response: Maximum inhibition (%): 12pt dose response
[5] = HepG2 cytotoxicity screening (CellTiter-Glo); conditions: human, uninfected HepG2-A16-CD81 (EGFP) hepatocytes
[6] = HepG2-A16-CD81, 48 h, 48 h liver stage, HepG2-A16-CD81, read-out: Pbluc (EEF) IC50
[7] = DD2, read-out: CDD P. falciparum Luciferase ABS 11-pt Reconfirmation Dose Response (48hr): IC50 (μM), 11-pt dose response, 48hr
[8] = DD2, 8-pt dose response, 96hr, read-out: CDD P. falciparum Luciferase ABS 8-pt Reconfirmation Dose Response (96hr): IC50
[9] = DD2, 8-pt dose response, 96hr, read-out: CDD P. falciparum Luciferase ABS 8-pt Reconfirmation Dose Response (96hr): Maximum inhibition (%)
[10] = DD2, 11-pt dose response, 48hr, read-out: CDD P. falciparum Luciferase ABS 11-pt Reconfirmation Dose Response (48hr): Maximum inhibition (%)
[11] = DD2, 11-pt dose response, 96hr, read-out: CDD P. falciparum Luciferase ABS 11-pt Reconfirmation Dose Response (96hr): IC50
[12] = DD2, 11-pt dose response, 96hr, read-out: CDD P. falciparum Luciferase ABS 11-pt Reconfirmation Dose Response (96hr): Maximum inhibition (%)
[13] = dose response, read-out: rLuc inhibition dose response: IC50
[14] = HepG2-A16-CD81, 12pt dose response, read-out: PbLuc 12pt dose response: IC50

Chain of recombinant firefly luciferase (P08659 whole entry): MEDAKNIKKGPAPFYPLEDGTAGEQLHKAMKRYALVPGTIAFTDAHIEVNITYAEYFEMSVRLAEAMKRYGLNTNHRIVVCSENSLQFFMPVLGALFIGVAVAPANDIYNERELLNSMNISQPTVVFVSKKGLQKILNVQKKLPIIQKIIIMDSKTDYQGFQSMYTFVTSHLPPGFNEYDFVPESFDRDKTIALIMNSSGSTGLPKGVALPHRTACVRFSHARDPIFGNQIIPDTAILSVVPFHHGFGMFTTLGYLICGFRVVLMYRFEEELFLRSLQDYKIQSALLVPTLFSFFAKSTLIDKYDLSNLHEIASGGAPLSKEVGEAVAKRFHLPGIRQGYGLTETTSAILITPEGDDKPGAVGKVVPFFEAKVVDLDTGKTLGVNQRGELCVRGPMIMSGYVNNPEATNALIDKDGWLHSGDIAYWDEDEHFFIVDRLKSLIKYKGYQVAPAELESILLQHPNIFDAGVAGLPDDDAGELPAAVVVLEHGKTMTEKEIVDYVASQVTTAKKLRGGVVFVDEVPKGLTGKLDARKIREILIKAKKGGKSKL

SMILES	IC50 ([1]; read-out: rLuc IC50)	IC50 [2, 6]	IC50 [3, 7]	IC50 [3, 8]	Emax [3, 9]	Emax [3, 10]	IC50 [3, 11]	Emax [3, 12]	IC50 (P. falciparum Dd2)	Emax (P. falciparum Dd2)	IC50 [4]	Emax ([1]; dose response)	IC50 [1, 13]	IC50 [2, 14]	Emax ([2]; HepG2-A16-CD81, 48 h)	HepG2 Cytotoxicity primary screen (2uM): % Inhibition [4]	HepG2 cytotoxicity 12pt dose response: Maximum inhibition (%) [4]	IC50 [5]	inhibition at 2 µM [5]
CCOc1ccc(CN2CCCC(c3cc4ncccc4[nH]3)C2)cc1 (centres unmarked) [DDD01057418]	> 25 µM	5.76 µM	1.07 µM	0.96 µM	95.5%	96.8%	0.872 µM	100%	0.934 µM	95.7%	> 25 µM								
Clc1ccc(-c2ccc(C3CNCCO3)nc2)cc1 (centres unmarked) [DDD01060778]	0.06 µM	< 0.000141 µM	1.38 µM	0.46 µM	93%	97.5%	1.36 µM	99.3%	> 12.5 µM	56.1%	> 25 µM								
COC1CCN(c2ccc(NC(=O)C3CC3)cc2C(F)(F)F)CC1 [UCSD-0582177]												16.4%	> 25 µM	14.7 µM	87.5%	12.40%	23%	> 25 µM	
CCc1cccc(N2CCC(NC(=O)c3ccco3)CC2)c1 [UCSD-0587427]												11.1%	> 25 µM	11.1 µM	87.3%	4.14%	3.68%	> 25 µM	
Cn1cnc2c1CCN(Cc1csc(-c3ccccc3F)n1)C2 [UCSD-0598805]												81.2%	15 µM	< 0.000141 µM	84.3%		6.01%	> 25 µM	0.19%
COc1cccc(CN2CCN(c3ccc4nncn4n3)C(C)C2)c1 (centres unmarked) [UCSD-0601459]												0.876%	> 25 µM	12.6 µM	92.1%	-7.20%	49.9%	> 25 µM	
COC(=O)c1sc(NCc2ccc(N3CCC(O)CC3)c(F)c2)nc1Cl [UCSD-0616240]												26.9%	> 25 µM	12.5 µM	87.4%	5.85%	58.9%	17.7 µM	
CCc1nc(CN2CCCN(c3ncnc4ccccc34)CC2)no1 [UCSD-0620461]												3.79%	> 50 µM	0.691 µM	96.1%		60.2%	> 1.85 µM	6.37%
COc1cccc(CNc2cc(C)nc(-c3ccncc3)n2)c1OC [UCSD-0704521]												11.7%	> 25 µM	4.43 µM	104%	-4.44%	80.5%	9.86 µM	
CC(C)Cc1ccc(S(=O)(=O)Nc2ccc(=O)n(C)c2)cc1 [UCSD-0710590]												7.28%	> 25 µM	0.0472 µM	91.6%		60.9%	> 0.31 µM	3.02%
Cn1cc(NS(=O)(=O)c2ccc(OC(F)(F)F)cc2)ccc1=O [UCSD-0710715]												16.1%	> 25 µM	13.1 µM	69.6%	-4.65%		> 25 µM	
COc1c(CNCc2ccc(C(=O)N(C)C(C)C)cc2)c(C)nn1C [UCSD-0723791]												-4.69%	> 25 µM	2.49 µM	86.3%		53.2%	16.6 µM	0.82%
O=C(Nc1ccc(Cl)cn1)c1nn(C2CCS(=O)(=O)C2)c2c1CCCC2 (centres unmarked) [UCSD-0749819]												2.39%	> 25 µM	> 25 µM	60%		-0.0195%	> 25 µM	-5.58%

Source: paper PMC7155171, “Probing the Open Global Health Chemical Diversity Library for Multistage-Active Starting Points for Next-Generation Antimalarials” (ACS Infectious Diseases, 2020)
